The text below walks through data of ChEMBL document CHEMBL1158859, “Antiprotozoal compounds from Asparagus africanus” (J Nat Prod, 1997).

For orientation: IC50 means the point on the concentration scale where inhibition reaches its midpoint.

A short description of test [1]: Selectivity index, ratio of IC50 for human lymphocyte to IC50 for chloroquine-resistant Plasmodium falciparum Dd2.
Test [2] can be described thus: Inhibition of phytohemagglutininin A-induced human lymphocyte proliferation assessed as radiolabeled [14C]thymidine uptake. The class given is cell-based.
The nature of test [3]: Selectivity index, ratio of IC50 for human lymphocyte to IC50 for chloroquine-susceptible Plasmodium falciparum K39.
The nature of test [4]: Selectivity index, ratio of IC50 for human lymphocyte to IC50 for chloroquine-resistant Plasmodium falciparum V1/S.
Test [5] relates to Plasmodium falciparum. Put plainly: Antiplasmodial activity against chloroquine-sensitive Plasmodium falciparum K39 after 48 hrs by [3H]hypoxanthine uptake. The format is functional, organism-based.
Test [6] concerns Plasmodium falciparum. In words: Antiplasmodial activity against chloroquine-resistant Plasmodium falciparum V1/S after 48 hrs by [3H]hypoxanthine uptake. The format is functional, organism-based.
Test [7] in a line: Selectivity index, ratio of IC50 for human lymphocyte to IC50 for chloroquine-susceptible Plasmodium falciparum 3D7.
Another test has as its system Leishmania major. In words: Antileishmanial activity against Leishmania major promastigotes assessed as inhibition of [3H]thymidine uptake after 18 hrs by scintillation counting. The format is functional, organism-based.
The test system of test [8] is Plasmodium falciparum. In words: Antiplasmodial activity against chloroquine-susceptible Plasmodium falciparum 3D7 after 24 hrs by [3H]hypoxanthine uptake. The format is functional, organism-based.
For test [9], the system named is Plasmodium falciparum. Put plainly: Antiplasmodial activity against Plasmodium falciparum schizonts assessed as [3H]hypoxanthine incorporation by liquid scintillation counting. The format is functional, organism-based. To be noted: Dd2.
The nature of test [10]: Selectivity index, ratio of IC50 for human lymphocyte to IC50 for Leishmania major.
In test [11] the test system is Plasmodium falciparum. In words: Antiplasmodial activity against chloroquine-resistant Plasmodium falciparum Dd2 after 24 hrs by [3H]hypoxanthine uptake. The format is functional, organism-based.

Each structure is given as a SMILES string.

For `C[C@@H]1CC[C@@]2(OC1)O[C@H]1C[C@H]3C4=CCC5=CC(=O)[C@@H](O)C[C@]5(C)[C@H]4C[C@H](O)[C@]3(C)[C@H]1[C@@H]2C` [MUZANZAGENIN], the “Ratio IC50” value in test [1] is recorded as 8; in [3], 2.1; in test [4], 0.8; in [7], 5.6; in test [10], 1.8. In addition, the IC50 in test [2] came to 129 µM; in the test on Plasmodium falciparum [5], 61 µM; with Plasmodium falciparum [6] it was 163 µM; in the test on Leishmania major, 70 µM; with Plasmodium falciparum [8], 23 µM; with Plasmodium falciparum [9] it was 16 µM. Also, the Activity result in the test on Plasmodium falciparum [5], in the test with Plasmodium falciparum [6], in the test on Leishmania major, in the test with Plasmodium falciparum [8] and with Plasmodium falciparum [9] was “Dose-dependent effect” each time.
Consider `C=C[C@H](/C=C\c1ccc(O)cc1)c1ccc(O)cc1` [NYASOL], for which the “Ratio IC50” value in test [1] is 16.7; in test [7] it was 16.7; in test [10], 4.1. The IC50 in test [2] turned out to be 200 µM; in the test on Plasmodium falciparum [11], 49 µM; in the test on Leishmania major, 12 µM; in the test with Plasmodium falciparum [8] it was 12 µM; in the test on Plasmodium falciparum [9] it was 12 µM.
